Measured values taken from patent US9006177B2 (Advinus Therapeutics Limited, priority 2010, dated 2015).

target: T1, Human A2A adenosine receptor (Homo sapiens, UniProt P29274); experiment: Radioligand binding for A2A adenosine receptor ([3H]-ZM-241385 competition, HEK-A2A membranes); settings: HEK-293 membranes, 2 nM [3H]-ZM-241385, read-out: A2A Cell based Functional Ki*
T1 construct: expressed in transfected cells
From the text: […]

T1 sequence (P29274 whole entry): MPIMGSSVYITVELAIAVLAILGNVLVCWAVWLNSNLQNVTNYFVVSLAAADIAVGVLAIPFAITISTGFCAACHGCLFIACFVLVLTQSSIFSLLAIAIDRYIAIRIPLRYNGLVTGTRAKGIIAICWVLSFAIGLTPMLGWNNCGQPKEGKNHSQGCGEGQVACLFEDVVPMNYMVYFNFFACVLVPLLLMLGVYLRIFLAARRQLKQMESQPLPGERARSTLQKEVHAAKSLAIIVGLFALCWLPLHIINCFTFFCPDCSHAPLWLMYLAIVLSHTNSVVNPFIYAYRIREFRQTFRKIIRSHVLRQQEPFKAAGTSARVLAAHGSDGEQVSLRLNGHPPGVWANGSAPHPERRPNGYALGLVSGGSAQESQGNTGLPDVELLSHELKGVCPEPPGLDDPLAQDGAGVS

| Structure (SMILES) | Ki |
| --- | --- |
| COc1ccc(N2CCN(CCn3c(=O)n(C)c4c3nc(N)n3nc(-c5ccco5)nc43)CC2)c(F)c1 [Example A9] | 0.0001 to 0.01 µM |
| Nc1nc2c(c3nc(-c4ccco4)nn13)n(CC(F)(F)F)c(=O)n2CCN1CCN(c2ccc(F)cc2F)CC1 [Example H2, 5-Amino-3-{2-[4-(2,4-difluoro-phenyl)-piperazin-1-yl]-ethyl}-8-furan-2-yl-1-(2,2,2-trifluoro-ethyl)-1,3-dihydro-[1,2,4]triazolo[5,1-f]purin-2-one] | 0.0001 to 0.01 µM |
| Cn1c(=O)n(CCN2CCN(CC3CC3)CC2)c2nc(N)n3nc(-c4ccco4)nc3c21 [Example A36, 5-Amino-3-[2-[4-(cyclopropylmethyl)piperazin-1-yl]ethyl]-8-(2-furyl)-1-methyl-[1,2,4]triazolo[5,1-f]purin-2-one] | 0.01 to 0.1 µM |
| CCOc1ccc(N2CCN(CCn3c(=O)n(CC4CC4)c4c3nc(N)n3nc(-c5ccco5)nc43)CC2)cc1 [Example C1, 5-Amino-1-(cyclopropylmethyl)-3-[2-[4-(4-ethoxyphenyl)piperazin-1-yl]ethyl]-8-(2-furyl)-[1,2,4]triazolo[5,1-f]purin-2-one] | 0.0001 to 0.01 µM |
| Cn1c(=O)n(CCN2CCN(C(=O)CC3CC3)CC2)c2nc(N)n3nc(-c4ccco4)nc3c21 [Example A63, 5-Amino-3-[2-[4-(2-cyclopropylacetyl)piperazin-1-yl]ethyl]-8-(2-furyl)-1-methyl-[1,2,4]triazolo[5,1-f]purin-2-one] | 0.01 to 0.1 µM |
| COc1ccc(CCn2c(=O)n(C)c3c2nc(N)n2nc(-c4ccco4)nc32)cc1 [Example A57] | 0.0001 to 0.01 µM |
| Cn1c(=O)n(CCN2CCN(C(=O)C3CC3)CC2)c2nc(N)n3nc(-c4ccco4)nc3c21 [Example A62, 5-Amino-3-[2-[4-(cyclopropanecarbonyl)piperazin-1-yl]ethyl]-8-(2-furyl)-1-methyl-[1,2,4]triazolo[5,1-f]purin-2-one] | 0.0001 to 0.01 µM |
| Cn1c(=O)n(CCN2CCN(c3ccc(OC(F)F)cc3)CC2)c2nc(N)n3nc(-c4ccco4)nc3c21 [Example A58, 5-amino-3-[2-[4-[4-(difluoromethoxy)phenyl]piperazin-1-yl]ethyl]-8-(2-furyl)-1-methyl-[1,2,4]triazolo[5,1-f]purin-2-one] | 0.0001 to 0.01 µM |
| CCn1c(=O)n(CCn2cc(-c3ccc(F)cc3F)cn2)c2nc(N)n3nc(-c4ccco4)nc3c21 [Example D3] | 0.0001 to 0.01 µM |
| Nc1nc2c(c3nc(-c4ccco4)nn13)n(CC1CC1)c(=O)n2CCn1cc(C(=O)O)cn1 [Example E1, 1-[2-[5-Amino-1-(cyclopropylmethyl)-8-(2-furyl)-2-oxo-[1,2,4]triazolo[5,1-f]purin-3-yl]ethyl]pyrazole-4-carboxylic acid] | 0.0001 to 0.01 µM |
| CCn1c(=O)n(CCN2CCN(c3ccc(F)cc3F)CC2)c2nc(N)n3nc(-c4ccco4)nc3c21 [Example G2] | 0.01 to 0.1 µM |
| COCCOc1ccc(N2CCN(CCn3c(=O)n(C)c4c3nc(N)n3nc(-c5nccs5)nc43)CC2)cc1 [Example M1, 5-Amino-3-[2-[4-[4-(2-methoxyethoxy)phenyl]piperazin-1-yl]ethyl]-1-methyl-8-thiazol-2-yl-[1,2,4]triazolo[5,1-f]purin-2-one] | 0.0001 to 0.01 µM |
| COCCOc1ccc(N2CCN(CCn3c(=O)n(C)c4c3nc(N)n3nc(-c5ccco5)nc43)CC2)c(F)c1 [Example A31] | 0.0001 to 0.01 µM |
| Cc1cnc2c(c1)CN(CCn1c(=O)n(C)c3c1nc(N)n1nc(-c4nccs4)nc31)CC2 [Example M6, 5-Amino-1-methyl-3-[2-(3-methyl-7,8-dihydro-5H-1,6-naphthyridin-6-yl)ethyl]-8-thiazol-2-yl-[1,2,4]triazolo[5,1-f]purin-2-one] | 0.0001 to 0.01 µM |
| Cn1c(=O)n(CCN2CCN(c3ccc(C(C)(C)O)cc3)CC2)c2nc(N)n3nc(-c4ccco4)nc3c21 [Example A13] | 0.0001 to 0.01 µM |
| CN(C)S(=O)(=O)N1CCN(CCn2c(=O)n(C)c3c2nc(N)n2nc(-c4ccco4)nc32)CC1 [Example A38, 4-[2-[5-Amino-8-(2-furyl)-1-methyl-2-oxo-[1,2,4]triazolo[5,1-f]purin-3-yl]ethyl]-N,N-dimethyl-piperazine-1-sulfonamide] | 0.0001 to 0.01 µM |
| Cc1cnc2c(c1)CN(CCn1c(=O)n(C)c3c1nc(N)n1nc(-c4ccco4)nc31)CC2 [Example A42, 5-Amino-8-(2-furyl)-1-methyl-3-[2-(3-methyl-7,8-dihydro-5H-1,6-naphthyridin-6-yl)ethyl]-[1,2,4]triazolo[5,1-f]purin-2-one] | 0.0001 to 0.01 µM |
| Cn1c(=O)n(CCN2CCN(c3ccc(OC4CCOC4)cc3)CC2)c2nc(N)n3nc(-c4ccco4)nc3c21 (stereo not drawn) [Example A39, 5-Amino-8-(2-furyl)-1-methyl-3-[2-[4-(4-tetrahydrofuran-3-yloxyphenyl)piperazin-1-yl]ethyl]-[1,2,4]triazolo[5,1-f]purin-2-one] | 0.0001 to 0.01 µM |
| Cn1c(=O)n(CCN2CCN(C(=O)CC3CC3)CC2)c2nc(N)n3nc(-c4nccs4)nc3c21 [Example M3, 5-Amino-3-[2-[4-(2-cyclopropylacetyl)piperazin-1-yl]ethyl]-1-methyl-8-thiazol-2-yl-[1,2,4]triazolo[5,1-f]purin-2-one] | 0.01 to 0.1 µM |
| COCCOc1ccc(N2CCN(CCn3c(=O)n(C)c4c3nc(N)n3nc(-c5ccco5)nc43)CC2)cc1 [Example A1] | 0.0001 to 0.01 µM |
| Cc1ccc(N2CCN(CCn3c(=O)n(C)c4c3nc(N)n3nc(-c5ccco5)nc43)CC2)cc1 [Example A7, 5-Amino-8-(2-furyl)-1-methyl-3-[2-[4-(p-tolyl)piperazin-1-yl]ethyl]-[1,2,4]triazolo[5,1-f]purin-2-one] | 0.0001 to 0.01 µM |
